Among the data in a melting point compilation (Tetko et al.; mined from patent text by program, amines drawn as free bases though some values may be those of a salt) are melting point values, retold here.

The compound `CC(C)c1cc(C(=O)Nc2ccc(C(=O)O)c(Cl)c2)sc1C(C)C` registered a melting point of 222 to 223 °C.

In turn, `COc1cc(OC)nc(NC(=O)CC(F)=C(F)F)n1` showed a melting point of 127 to 130 °C.

`Cn1nc(-c2ccccc2)c(Oc2ccc(N)cc2)c1-c1ccccc1` gave a melting point of 167 to 169 °C.

In turn, `COc1cc2c(c3c1OC(C)(C)C3)C(c1cccc(-c3ccc(N)cc3)c1)=NCC2(C)C` came in with a melting point of 232 to 234 °C.

Turning to `O=S(=O)(Cl)c1ccc2cc(Oc3c(Cl)cc(C(F)(F)F)cc3Cl)ccc2c1`, the melting point turned out to be 140 °C.

For the compound `OC(Cc1ccc(Cl)cc1Cl)(Cn1ccnc1)c1ccc(C2CCCCC2)cc1` (stereo unspecified), the melting point was determined as 142 °C.

Compound `CCOC(=O)C1(CC(C)=O)OC(=O)C(=O)C1C(C)=O` (stereo unspecified) yielded a melting point of 87 to 88 °C.

The compound `CCC(CC)CNC(=O)c1ccc2cccc(Cc3ccc(C(=O)NS(=O)(=O)c4ccccc4C)cc3OC)c2c1` gave a melting point of 126 to 128 °C.

The compound `c1ccc(COc2cccc3c2OCO3)cc1` yielded a melting point of 62 to 63 °C.

Consider `Cc1cc(C#N)cc(-c2ccc3c(c2)C(C)(C)OC(=O)N3)c1`, for which the melting point lay in the range of 256 to 258 °C.

Take `O=C(NCCO)C(=O)c1ccc(OCCOc2ccc3ccccc3c2)cc1`: the melting point fell in the range of 138 to 140 °C.

For the compound `CCS(=O)(=O)N[C@H](C(=O)NCCc1ccc(OCc2ccc(Cl)s2)c(OC)c1)C(C)C`, the melting point fell in the range of 124 to 127 °C.

In turn, `O=[N+]([O-])c1ccc(OCCc2ccc(CO)cn2)cc1` gave a melting point of 144 to 145 °C.

For the compound `Clc1ccc(C(c2ccc(Cl)cc2)N2CCN(C(c3ccccc3)c3c[nH]c4cccc(Cl)c34)CC2)cc1` (stereo unspecified), the melting point fell in the range of 100 to 105 °C.

Take `CCCC(=O)OCC(=O)C1(OC(=O)CC)CCC2C3CC(C)C4=CC(=O)CCC4(C)C3C(O)CC21C` (stereo unspecified): the melting point is 211 °C.

In turn, `COc1cccc(C23CCCC=C2C(=O)NC(=O)C3)c1` (stereo unspecified) returned a melting point of 230 to 232 °C.

In the case of `CCOC(=O)c1cn(CCF)c2cc(F)c(F)cc2c1=O`, the melting point fell in the range of 178 to 180 °C.

In turn, `CCCCc1nc2cccc(C(=O)OC)c2n1Cc1ccc(-n2c(C)ccc2C#N)cc1` displayed a melting point of 131 to 132 °C.

Compound `Nc1nc(N)nc(-c2cccc(S(N)(=O)=O)c2)n1` yielded a melting point greater than 290 °C.

In turn, `COc1ccc(-c2nc(S(=O)(=O)C(F)(F)C(F)F)[nH]c2-c2cccs2)cc1` had a melting point of 163 to 164 °C.

Compound `COc1ccc(Cl)c(Oc2c(Cl)nc(C)nc2Cl)c1` returned a melting point of 125 to 130 °C.

With `CCSC(C)(C)C(=O)C(C(=O)Nc1cc(NC(=O)CCCOc2ccc(C(C)(C)CC)cc2C(C)(C)CC)ccc1OC)N1C(=O)OC(C)(C)C1=O` (stereo unspecified), the melting point was 155 to 156 °C.

`O=C(O)c1ccc2ccc(S(=O)(=O)N(Cc3ccccc3)Cc3ccccc3)cc2c1`: the melting point is 189 to 190 °C.

In turn, `Cc1ccc(C=CC2CCC(c3ccccc3)(N(C)C)CC2)cc1` (stereo unspecified) displayed a melting point of 130 to 145 °C.

Regarding `c1ccc2cc(-c3scc4c3OCCO4)ccc2c1`, the melting point lay within 208 to 211 °C.

`CC(C)(C)NC(=O)Nc1nc2nc(N)ncc2cc1-c1c(F)cccc1F` gave a melting point greater than 300 °C.

In turn, `O=c1nc(C2CC2)c2cc(-c3cccc(Cl)c3)ccc2[nH]1` came in with a melting point of 189 to 190 °C.

As to `CCOC(=O)C(=CNc1nnn[nH]1)C(=O)c1cc(F)c(Cl)nc1Cl`, the melting point fell in the range of 150 to 152 °C.

Regarding `COC(=O)C[C@H]1N=C(c2ccccc2Cl)c2cc(Cl)ccc2NC1=O`, the melting point was 168 to 170 °C.

`CCc1cc2c(cc1C(C)=O)CC(NC(=O)C(F)(F)F)C2` (stereo unspecified) gave a melting point of 124 to 127 °C.

`CC(C)N(CCC(CCN(C(C)C)C(C)C)(C(N)=O)c1c(Cl)cccc1Cl)C(C)C`: the melting point is 168 to 170 °C.

`Cc1cc(Oc2ccc(C#CC(C)N(O)C(N)=O)o2)ccc1F` (stereo unspecified): the melting point was 131 to 132 °C.

`CCn1c(=O)oc2cc([N+](=O)[O-])ccc21` displayed a melting point of 133 to 135 °C.

`CCCN(CCCc1c[nH]c2c(OC)cccc12)C1COc2c(F)ccc(C(N)=O)c2C1` (stereo unspecified) yielded a melting point of 158 to 164 °C.

Compound `C#CCOc1cc(N)ccc1C` registered a melting point of 75 to 77 °C.

Take `CNC(=O)[C@@H](N)C(C)(C)C`: the melting point was in the range of 90 to 93 °C.

On to `Cc1cc(C)c(N=c2cc(-c3ccc(O)c(O)c3)n(C)c(=O)n2C)c(C)c1`, for which the melting point was 222 to 225 °C.

In turn, `COc1ccc2c(c1)Sc1cc(OC)c(Cl)cc1C(=O)C2` came in with a melting point of 186 to 188 °C.

Regarding `CON=C(C#N)c1ccccc1COc1ccccc1C`, the melting point is 53 to 54 °C.

`CCCOC(=Nc1sc(Cl)cc1C#N)OCCC` gave a melting point of 55 to 57 °C.

Regarding `CC(=O)N(C(C)=O)c1ccc(C2=NN(C(C)=O)C(C)Cc3cc4c(cc32)OCO4)cc1` (stereo unspecified), the melting point lay within 224 to 227 °C.

Compound `O=C(O)C1Cc2c(c(Cl)cc3c(-c4cccs4)noc23)O1` (stereo unspecified) returned a melting point of 249 to 251 °C.

With `CC(C)(C)c1cc(CN2CC(N(O)C(N)=O)C2)cc(C(C)(C)C)c1O`, the melting point is 90 to 95 °C.

`Cn1ncc(C(=O)Nc2ccc(-n3nc(C(F)(F)F)cc3C(F)(F)F)cc2)c1[N+](=O)[O-]` showed a melting point of 214 to 216 °C.

Consider `CCn1nc(Cc2ccc([N+](=O)[O-])cc2)oc1=O`, for which the melting point was in the range of 108 to 109 °C.

Take `Nc1ccc([N+](=O)[O-])cc1S(=O)(=O)CCc1ccc(S(=O)(=O)O)cc1`: the melting point is 248 to 253 °C.

`CCCCCCc1ccc(-c2ccc(-c3ccc(CCCCC)cc3)c(F)c2)s1` came in with a melting point of 44 °C.

The compound `Nc1nc(-c2cc(Cl)ccc2Cl)nc(N2CCC(O)(c3ccccc3)CC2)n1` yielded a melting point of 176 to 178 °C.

Compound `CC(=O)N1CCN(Cc2ccc(-c3cc4ncnc(Nc5ccc6[nH]ccc6c5)c4s3)cc2)CC1` yielded a melting point of 163 to 180 °C.

Turning to `Nc1nc2[nH]c(CCCc3ccc(C(=O)N[C@@H](CCC(=O)O)C(=O)O)s3)cc2c(=O)[nH]1`, the melting point was in the range of 175 to 176 °C.

For `CCCCn1c(C)c(Br)c(=O)c(C(=O)Nc2c(CC)cccc2CC)c1C`, the melting point lay within 158 to 160 °C.

Consider `Cc1c(C)c2c(c(C)c1O)SC(CCCO)O2` (stereo unspecified), for which the melting point was in the range of 116 to 117 °C.

In turn, `CCOCc1nc2c(N)nc3cc(OCc4cccc([N+](=O)[O-])c4)ccc3c2n1CC(C)C` displayed a melting point of 162 to 164 °C.

`CC1Cc2cccc(S(N)(=O)=O)c2N1` (stereo unspecified) registered a melting point of 110 to 112 °C.

Regarding `O=C(O)CN1C(=O)C(=Cc2ccccc2C(=O)O)SC1=S`, the melting point was greater than 300 °C.

The compound `CN1CC=C(c2cccc3ccc(N(Cc4ccccc4)Cc4ccccc4)cc23)CC1` registered a melting point of 124 to 126 °C.

In turn, `Nc1ccc(S(=O)(=O)Oc2ccccc2)cc1[N+](=O)[O-]` displayed a melting point of 104 °C.

On to `CC(C)c1ccc(C=CC(=O)c2ccc(O)c(CC(=O)O)c2)cc1`, for which the melting point turned out to be 228 °C.

Take `N#CCCNC(=O)c1cc(F)cc(-c2cccc3cc(Cc4cc(F)cc(Cl)c4)sc23)c1`: the melting point lay within 113 to 114 °C.

In turn, `CCS(=O)(=O)c1nn2c(-c3ccc(OC)cc3)nnc2c2ccccc12` yielded a melting point of 210 to 213 °C.

Consider `CN(C)CCn1c(=O)c2ccc([N+](=O)[O-])cc2c2cnc3cc4c(cc3c21)OCO4`, for which the melting point was in the range of 111 to 112 °C.
